{
  "source": "the supplement of paper PMC10307832",
  "experiment_in_all_cases": "relative viability (nuclei count vs DMSO), 5 days (fraction); higher = more cells survive",
  "key": {"[1]": {"system": "A-427", "procedure,_shortened": "(§1)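 Relative viability was taken as the ratio of nuclei in treated wells to nuclei in vehicle wells. Lung cancer cell lines in 1536-well plates received compounds by pin tool one day after seeding, either one drug alone or a fixed anchor-drug dose plus five library-drug doses (not always all listed) in √10 steps. Nuclei were counted on 4× images after 5 days of treatment, and values are medians of duplicate plates.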"}, "[2]": {"system": "NCI-H1651", "procedure,_shortened": "as §1"}, "[3]": {"system": "NCI-H1755", "procedure,_shortened": "as §1"}, "[4]": {"system": "LK-2", "procedure,_shortened": "as §1"}, "[5]": {"system": "A549", "procedure,_shortened": "as §1"}, "[6]": {"system": "NCI-H1299", "procedure,_shortened": "as §1"}, "[7]": {"system": "EBC-1", "procedure,_shortened": "as §1"}, "[8]": {"system": "CAL-12T", "procedure,_shortened": "as §1"}, "[9]": {"system": "Calu-6", "procedure,_shortened": "as §1"}, "[10]": {"system": "NCI-H1703", "procedure,_shortened": "as §1"}, "[11]": {"system": "IA-LM", "procedure,_shortened": "as §1"}},
  "data": [
    {"smiles": "Cc1csc(=NC2CCCCC2)n1/N=C/c1ccc(O)c(O)c1O", "note": "[MIM1] + CC1(C)CCC(c2ccc(Cl)cc2)=C(CN2CCN(c3ccc(C(=O)NS(=O)(=O)c4ccc(N[C@H](CCN5CCOCC5)CSc5ccccc5)c(S(=O)(=O)C(F)(F)F)c4)cc3)CC2)C1 [Navitoclax] (partner 0.5 µM)", "values": [
      {"measurement": "relative viability", "setting": "[1]; first compound 0.2 µM", "result": 0.972},
      {"measurement": "relative viability", "setting": "[1]; first compound 0.6325 µM", "result": 1.02},
      {"measurement": "relative viability", "setting": "[1]; first compound 2 µM", "result": 0.981},
      {"measurement": "relative viability", "setting": "[1]; first compound 6.325 µM", "result": 0.986},
      {"measurement": "relative viability", "setting": "[1]; first compound 20 µM", "result": 0.555},
      {"measurement": "relative viability", "setting": "[2]; first compound 0.2 µM", "result": 1.09},
      {"measurement": "relative viability", "setting": "[2]; first compound 0.6325 µM", "result": 1.1},
      {"measurement": "relative viability", "setting": "[2]; first compound 2 µM", "result": 1.03},
      {"measurement": "relative viability", "setting": "[2]; first compound 6.325 µM", "result": 0.875},
      {"measurement": "relative viability", "setting": "[2]; first compound 20 µM", "result": 0.869},
      {"measurement": "relative viability", "setting": "[3]; first compound 0.2 µM", "result": 1.01},
      {"measurement": "relative viability", "setting": "[3]; first compound 0.6325 µM", "result": 0.995},
      {"measurement": "relative viability", "setting": "[3]; first compound 2 µM", "result": 1.03},
      {"measurement": "relative viability", "setting": "[3]; first compound 6.325 µM", "result": 0.703},
      {"measurement": "relative viability", "setting": "[3]; first compound 20 µM", "result": 0.557},
      {"measurement": "relative viability", "setting": "[4]; first compound 0.2 µM", "result": 0.924},
      {"measurement": "relative viability", "setting": "[4]; first compound 0.6325 µM", "result": 0.847},
      {"measurement": "relative viability", "setting": "[4]; first compound 2 µM", "result": 0.657},
      {"measurement": "relative viability", "setting": "[4]; first compound 6.325 µM", "result": 1.09},
      {"measurement": "relative viability", "setting": "[4]; first compound 20 µM", "result": 0.209},
      {"measurement": "relative viability", "setting": "[5]; first compound 0.2 µM", "result": 1.17},
      {"measurement": "relative viability", "setting": "[5]; first compound 0.6325 µM", "result": 1.24},
      {"measurement": "relative viability", "setting": "[5]; first compound 2 µM", "result": 1.3},
      {"measurement": "relative viability", "setting": "[5]; first compound 6.325 µM", "result": 0.843},
      {"measurement": "relative viability", "setting": "[5]; first compound 20 µM", "result": 0.0781},
      {"measurement": "relative viability", "setting": "[6]; first compound 0.2 µM", "result": 1.06},
      {"measurement": "relative viability", "setting": "[6]; first compound 0.6325 µM", "result": 1.07},
      {"measurement": "relative viability", "setting": "[6]; first compound 2 µM", "result": 1.04},
      {"measurement": "relative viability", "setting": "[6]; first compound 6.325 µM", "result": 1.05},
      {"measurement": "relative viability", "setting": "[6]; first compound 20 µM", "result": 0.974},
      {"measurement": "relative viability", "setting": "[7]; first compound 0.2 µM", "result": 0.417},
      {"measurement": "relative viability", "setting": "[7]; first compound 0.6325 µM", "result": 0.475},
      {"measurement": "relative viability", "setting": "[7]; first compound 2 µM", "result": 0.367},
      {"measurement": "relative viability", "setting": "[7]; first compound 6.325 µM", "result": 0.227},
      {"measurement": "relative viability", "setting": "[7]; first compound 20 µM", "result": 0.166},
      {"measurement": "relative viability", "setting": "[8]; first compound 0.2 µM", "result": 1.13},
      {"measurement": "relative viability", "setting": "[8]; first compound 0.6325 µM", "result": 1.36},
      {"measurement": "relative viability", "setting": "[8]; first compound 2 µM", "result": 1.15},
      {"measurement": "relative viability", "setting": "[8]; first compound 6.325 µM", "result": 0.731},
      {"measurement": "relative viability", "setting": "[8]; first compound 20 µM", "result": 0.945},
      {"measurement": "relative viability", "setting": "[9]; first compound 0.2 µM", "result": 0.772},
      {"measurement": "relative viability", "setting": "[9]; first compound 0.6325 µM", "result": 0.93},
      {"measurement": "relative viability", "setting": "[9]; first compound 2 µM", "result": 0.857},
      {"measurement": "relative viability", "setting": "[9]; first compound 6.325 µM", "result": 0.205},
      {"measurement": "relative viability", "setting": "[9]; first compound 20 µM", "result": 0.135},
      {"measurement": "relative viability", "setting": "[10]; first compound 0.2 µM", "result": 0.91},
      {"measurement": "relative viability", "setting": "[10]; first compound 0.6325 µM", "result": 1.15},
      {"measurement": "relative viability", "setting": "[10]; first compound 2 µM", "result": 1.03},
      {"measurement": "relative viability", "setting": "[10]; first compound 6.325 µM", "result": 0.135},
      {"measurement": "relative viability", "setting": "[10]; first compound 20 µM", "result": 0.117},
      {"measurement": "relative viability", "setting": "[11]; first compound 0.2 µM", "result": 0.588},
      {"measurement": "relative viability", "setting": "[11]; first compound 0.6325 µM", "result": 0.713},
      {"measurement": "relative viability", "setting": "[11]; first compound 2 µM", "result": 0.721},
      {"measurement": "relative viability", "setting": "[11]; first compound 6.325 µM", "result": 0.195},
      {"measurement": "relative viability", "setting": "[11]; first compound 20 µM", "result": 0.0808}
    ]}
  ]
}
